Data: paper PMC5559490, “Synthesis of Saccharumoside-B analogue with potential of antiproliferative and pro-apoptotic activities” (Scientific Reports, 2017)

How the values were obtained:
[1] = tested on: MCF-10A mammary epithelial cells; assay: MTT assay on normal MCF-10A cells; assay type: cell-based; conditions: Homo sapiens, MTT assay, normal cells, 48 h, read-out: IC50 MCF-10A Breast (normal cell line)
[2] = tested on: MCF-7 breast cancer cells; assay: MTT antiproliferative assay, MCF-7; assay type: cell-based; conditions: Homo sapiens, MCF7; MTT assay; cancer cell line; mean of three independent experiments ± S.E.M.; read-out: IC50 MCF-7 Breast
[3] = tested on: Bcl-2; assay: Quantification of Bcl-2 (ELISA), HL-60; assay type: cell-based, human; conditions: HL-60 cells; compared to untreated cells
Experimental: (§1) The intracellular content of Bcl-2 was quantified using the human Bcl-2 ELISA kit (Abcam, Cambridge, MA, USA). For the sample preparation, the cells were lysed with 1X lysis buffer. After 1 h of incubation at room temperature, the sample was spun at 1,000 g for 15 min and the supernatant was used for Bcl-2 measurement. Briefly, 80 μL of sample diluent and 20 μL of sample were added into the wells coated with monoclonal antibody to human Bcl-2, and after that the wells were washed twice with the wash buffer. Next, 50 μL of biotin-conjugate were added into the wells. After 2 h of incubation at room temperature on a microplate shaker, 100 μL of streptavidin-horseradish peroxidase were added. The sample was incubated again for 1 h at room temperature on a microplate shaker. The solution was withdrawn and the wells were washed with 3X wash buffer. Immediately, 100 μL of TMB substrate solution were added. Finally, 100 μL of stop solution were added into each well to stop the enzyme reaction. The absorbance was read using an ELISA reader at 450 and 620 nm wavelengths. Bcl-2 protein concentration was determined from the standard protein graphic using the optical densities of the samples[32].

[4] = tested on: HL-60 cells; assay: Rhodamine-123 mitochondrial membrane potential assay, HL-60; assay type: cell-based, human; conditions: compared to untreated cells
[5] = tested on: HL-60 leukemia cells; assay: MTT antiproliferative assay, HL-60; assay type: cell-based, human
[6] = tested on: Bcl-2; assay: Quantification of Bcl-2 (ELISA), MCF-7; assay type: cell-based, human; conditions: MCF-7 cells; compared to untreated cells
Experimental: as §1

[7] = tested on: human peripheral blood mononuclear cells (PBMC); assay: MTT assay on normal PBMC; assay type: cell-based; conditions: MTT assay, normal cells, 48 h, read-out: IC50 PBMC (normal cells)
[8] = tested on: CaCo-2 colon cancer cells; assay: MTT antiproliferative assay, CaCo-2; assay type: cell-based; conditions: Homo sapiens, Caco-2; MTT assay; cancer cell line; mean of three independent experiments ± S.E.M.; read-out: IC50 CaCo-2 Colon
[9] = tested on: caspase-3; assay: Caspase-3 colorimetric assay, MCF-7; assay type: cell-based, human; conditions: MCF-7 cells
Experimental: (§2) Caspases-3, -8 and -9 assays were measured according to manufacturer’s instructions using a caspase colorimetric protease kit (Abcam, Cambridge, MA, USA). Cells were treated with compounds for 48 h. The cells were lysed by the addition of 50 μL of chilled cell lysis buffer and incubated on ice for 10 min. The resulting cell lysate was centrifuged for 1 min at 10,000 g, and the supernatant was collected. The cell lysate containing […] of protein was incubated with […] of 4 mmol/L pNA-conjugated substrates (DEVD-pNA, IETD-pNA and LEHD-pNA; substrates for caspase-3, -8 and -9, respectively) at 37 °C for 3 h. The amount of pNA released was measured at 405 nm using an ELISA microplate reader (Bio rad). The caspases activity was expressed as fold difference, [33].

[10] = tested on: MIA PaCa-2 pancreatic cancer cells; assay: MTT antiproliferative assay, MIA PaCa-2; assay type: cell-based; conditions: Homo sapiens, MIA PaCa-2; MTT assay; cancer cell line; mean of three independent experiments ± S.E.M.; read-out: IC50 MIA PaCa-2 Pancreatic
[11] = tested on: caspase-9; assay: Caspase-9 colorimetric assay, MCF-7; assay type: cell-based, human; conditions: MCF-7 cells
Experimental: as §2

IC50 [2]: 6.13 ± 0.64 µM
IC50 ([5]; Homo sapiens, HL-60, MTT assay, cancer cell line, mean of three independent experiments ± S.E.M., read-out: IC50 HL-60 Leukemia): 4.43 ± 0.35 µM
IC50 [8]: 8.66 ± 0.72 µM
effect on caspase-3 activity [9]: enhanced caspase-3 and -9 activities
IC50 [10]: 12.9 ± 0.52 µM
effect on caspase-9 activity [11]: enhanced caspase-3 and -9 activities
SMILES: COc1cc(CO)ccc1OC1OC(COC(=O)c2ccc(F)cc2)C(O)C(O)C1O (stereo not shown) [Compound 9f, (6-(4-(hydroxymethyl)-2-methoxyphenoxy)-tetrahydro-3,4,5-trihydroxy-2H-pyran-2-yl)methyl 4-fluorobenzoate]
IC50 [1]: > 100 µM
effect on Bcl-2 levels [3]: dose dependent inhibition of Bcl-2
mitochondria membrane potential loss ([4]; 5 µM): 55.32 ± 2.14%
mitochondria membrane potential loss ([4]; 10 µM): 65.56 ± 2.56%
anti-proliferative effect at 24 h ([5]; HL-60 cells, 24 h, versus camptothecin (positive control)): better antiproliferative effect than camptothecin
effect on Bcl-2 levels [6]: dose dependent inhibition of Bcl-2
IC50 [7]: > 100 µM
